Assay results as given in US11014895B2, “Heterocyclic urea compound, and drug composition and application thereof” (CHINA PHARMACEUTICAL UNIVERSITY, priority 2017, dated 2021).

Columns and labels:
IDO1 enzyme = IDO1 enzyme (Homo sapiens, UniProt P14902); assay: Determination of biochemical activity of IDO1 enzyme (absorbance at 320 nm); details: room temperature, 3 hours
Experimental: (1) Method for Determining Biochemical Activity of IDO1 Enzyme
Firstly, 15 μl of buffer solution of sodium hydrogen phosphate (PH:7-8), 5 μl of reaction buffer solution containing a proper amount of IDO-1 enzyme and heterocyclic urea compound prepared by the invention were added into wells of a microplate, mixed evenly, and reacted at room temperature for 3 hours; then a light absorption value at 320 nm wavelength was detected by using Envision Multilabel Reader of PE company, an inhibition rate of the heterocyclic urea compound on the enzyme reaction was calculated according to an absorption ratio, and an IC50 value of the heterocyclic urea compound was calculated through analysis by GraphPad.

[1] = target: T1, IDO1 enzyme in the Hela cell (Homo sapiens, UniProt P14902); assay: Cell activity: interferon γ-stimulated Hela cells, absorbance of supernatant at 480 nm; format: cell-based; details: interferon γ 100 ng/ml, 72 hours
T1 construct: endogenous in cells; host or cells: HeLa cells stimulated with interferon γ (100 ng/ml)
T1 sequence (P14902 whole entry): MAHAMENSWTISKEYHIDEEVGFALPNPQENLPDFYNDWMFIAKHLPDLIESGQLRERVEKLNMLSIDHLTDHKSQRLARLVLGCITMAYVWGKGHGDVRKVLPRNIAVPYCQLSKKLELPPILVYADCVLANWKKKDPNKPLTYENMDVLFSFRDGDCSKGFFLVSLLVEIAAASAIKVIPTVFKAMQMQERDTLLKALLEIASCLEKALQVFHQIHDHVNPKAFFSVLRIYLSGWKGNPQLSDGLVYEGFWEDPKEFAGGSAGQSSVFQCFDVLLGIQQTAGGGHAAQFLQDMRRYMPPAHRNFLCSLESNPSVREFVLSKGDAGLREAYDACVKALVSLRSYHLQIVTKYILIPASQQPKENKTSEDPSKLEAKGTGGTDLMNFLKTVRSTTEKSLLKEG
Experimental: (2) Method for Determining Cell Activity
Hela cells were cultured and passaged in a DMEM medium supplemented with antibiotics in a 37° C. CO2 incubator, inoculated into a 96-well plate for overnight culture, then 1 μl of heterocyclic urea compound with appropriate concentration was added to each well, and then 100 μl of interferon γ (final concentration was 100 ng/ml) was added. After the cells were continuously cultured for 72 hours, 70 μl of cell culture supernatant was added to a 96-well V-bottom plate, 5 μl of trichloroacetic acid (6.1 N) was added to each well, incubated at 50° C. for 30 min, then taken out and centrifuged at […] for 10 min. The above centrifuged supernatant was transferred to a 384-well microplate (20 μl/well), then 20 μl of 2% didimethylaminobenzaldehyde acetic acid solution was added to each well, shaken and mixed evenly, then photometric absorption was performed at 480 nm, and values were measured.

Chain of IDO1 enzyme (P14902 whole entry): as above

| IC50 (IDO1 enzyme) [µM] | IC50 [1] [µM] | Structure (SMILES) |
| --- | --- | --- |
| 0.1 to 1 | 0.1 to 1 | O=C(Nc1nonc1/C(=N/O)Nc1ccc(F)c(Br)c1)NC1CCC1 [Embodiment 31, (Z)-1-(4-(N-(3-bromo-4-fluorophenyl)-N′-hydroxyaminoiminomethyl)-1,2,5-oxadiazole-3-substituted)-3-cyclobutylurea] |
| 0.1 to 1 | 0.1 to 1 | O=C(Nc1nonc1/C(=N/O)Nc1ccc(F)c(Br)c1)NC1CC1 [Embodiment 32, (Z)-1-(4-(N-(3-bromo-4-fluorophenyl)-N′-hydroxyaminoiminomethyl)-1,2,5-oxadiazole-3-substituted)-3-cyclopropylurea] |
| 0.1 to 1 | 0.1 to 1 | O=C(Nc1nonc1/C(=N/O)Nc1ccc(F)c(Br)c1)NC1CCCCCC1 [Embodiment 33, (Z)-1-(4-(N-(3-bromo-4-fluorophenyl)-N′-hydroxyaminoiminomethyl)-1,2,5-oxadiazole-3-substituted)-3-cycloheptylurea] |
| 0.1 to 1 | 0.1 to 1 | O=C(Nc1nonc1/C(=N/O)Nc1ccc(F)c(Br)c1)Nc1cccc2[nH]ccc12 [Embodiment 34, (Z)-1-(4-(N-(3-bromo-4-fluorophenyl)-N′-hydroxyaminoiminomethyl)-1,2,5-oxadiazole-3-substituted)-3-(1H-indole-4-substituted)urea] |
| 0.1 to 1 | 0.1 to 1 | O=C(Nc1ccncc1)Nc1nonc1/C(=N/O)Nc1ccc(F)c(Br)c1 [Embodiment 35] |
| 0.1 to 1 | 0.1 to 1 | O=C(Nc1nonc1/C(=N/O)Nc1ccc(F)c(Br)c1)Nc1cccc2cc[nH]c12 [Embodiment 36, (Z)-1-(4-(N-(3-bromo-4-fluorophenyl)-N′-hydroxyaminoiminomethyl)-1,2,5-oxadiazole-3-substituted)-3-(1H-indole-7-substituted)urea] |
| 0.1 to 1 | 0.1 to 1 | O=C(Nc1nonc1/C(=N/O)Nc1ccc(F)c(Br)c1)Nc1c[nH]c2ccccc12 [Embodiment 37, (Z)-1-(4-(N-(3-bromo-4-fluorophenyl)-N′-hydroxyaminoiminomethyl)-1,2,5-oxadiazole-3-substituted)-3-(1H-indole-3-substituted)urea] |
| 0.1 to 1 | 0.1 to 1 | O=C(Nc1nonc1/C(=N/O)Nc1ccc(F)c(Br)c1)Nc1coc2ccccc12 [Embodiment 38, (Z)-1-(4-(N-(3-bromo-4-fluorophenyl)-N′-hydroxyaminoiminomethyl)-1,2,5-oxadiazole-3-substituted)-3-(benzofuran-3-substituted)urea] |
| 0.1 to 1 | 0.1 to 1 | O=C(Nc1nonc1/C(=N/O)Nc1ccc(F)c(Br)c1)Nc1csc2ccccc12 [Embodiment 39, (Z)-1-(4-(N-(3-bromo-4-fluorophenyl)-N′-hydroxyaminoiminomethyl)-1,2,5-oxadiazole-3-substituted)-3-(benzothiophene-3-substituted)urea] |
| 0.1 to 1 | 0.1 to 1 | O=C(Nc1cc[nH]c1)Nc1nonc1/C(=N/O)Nc1ccc(F)c(Br)c1 [Embodiment 40, (Z)-1-(4-(N-(3-bromo-4-fluorophenyl)-N′-hydroxyaminoiminomethyl)-1,2,5-oxadiazole-3-substituted)-3-(1H-pyrrole-3-substituted)urea] |
| 0.1 to 1 | 0.1 to 1 | O=C(Nc1ccoc1)Nc1nonc1/C(=N/O)Nc1ccc(F)c(Br)c1 [Embodiment 41, (Z)-1-(4-(N-(3-bromo-4-fluorophenyl)-N′-hydroxyaminoiminomethyl)-1,2,5-oxadiazole-3-substituted)-3-(furan-3-substituted)urea] |
| > 1 | > 1 | O=C(Nc1ccsc1)Nc1nonc1/C(=N/O)Nc1ccc(F)c(Br)c1 [Embodiment 42, (Z)-1-(4-(N-(3-bromo-4-fluorophenyl)-N′-hydroxyaminoiminomethyl)-1,2,5-oxadiazole-3-substituted)-3-(thiophene-3-substituted)urea] |
| > 1 | > 1 | O=C(Nc1ncccn1)Nc1nonc1/C(=N/O)Nc1ccc(F)c(Br)c1 [Embodiment 43, (Z)-1-(4-(N-(3-bromo-4-fluorophenyl)-N′-hydroxyaminoiminomethyl)-1,2,5-oxadiazole-3-substituted)-3-(pyrimidine-2-substituted)urea] |
| > 1 | > 1 | O=C(Nc1ncncn1)Nc1nonc1/C(=N/O)Nc1ccc(F)c(Br)c1 [Embodiment 44, (Z)-1-(4-(N-(3-bromo-4-fluorophenyl)-N′-hydroxyaminoiminomethyl)-1,2,5-oxadiazole-3-substituted)-3-(1,3,5-triazine-2-substituted)urea] |
| > 1 | > 1 | O=C(Nc1ccncn1)Nc1nonc1/C(=N/O)Nc1ccc(F)c(Br)c1 [Embodiment 45, (Z)-1-(4-(N-(3-bromo-4-fluorophenyl)-N′-hydroxyaminoiminomethyl)-1,2,5-oxadiazole-3-substituted)-3-(pyrimidine-4-substituted)urea] |
| > 1 | > 1 | O=C(Nc1ncc[nH]1)Nc1nonc1/C(=N/O)Nc1ccc(F)c(Br)c1 [Embodiment 46, (Z)-1-(4-(N-(3-bromo-4-fluorophenyl)-N′-hydroxyaminoiminomethyl)-1,2,5-oxadiazole-3-substituted)-3-(1H-imidazole-2-substituted)urea] |
| 0.1 to 1 | 0.1 to 1 | O=C(Nc1nonc1/C(=N/O)Nc1ccc(F)c(Br)c1)NC1CCOC1 (stereo not drawn) [Embodiment 47, (Z)-1-(4-(N-(3-bromo-4-fluorophenyl)-N′-hydroxyaminoiminomethyl)-1,2,5-oxadiazole-3-substituted)-3-(tetrahydrofuran-substituted)urea] |
| 0.1 to 1 | 0.1 to 1 | O=C(Nc1nonc1/C(=N/O)Nc1ccc(F)c(Br)c1)N1CCNCC1 [Embodiment 48, (Z)-1-(4-(N-(3-bromo-4-fluorophenyl)-N′-hydroxyaminoiminomethyl)-1,2,5-oxadiazole-3-substituted)piperazine-1-carbamide] |
| 0.1 to 1 | 0.1 to 1 | O=C(Nc1nonc1/C(=N/O)Nc1ccc(F)c(Br)c1)N1CCOCC1 [Embodiment 49, (Z)-1-(4-(N-(3-bromo-4-fluorophenyl)-N′-hydroxyaminoiminomethyl)-1,2,5-oxadiazole-3-substituted)morpholine-1-carbamide] |
| 0.1 to 1 | 0.1 to 1 | CS(=O)(=O)N1CCN(C(=O)Nc2nonc2/C(=N/O)Nc2ccc(F)c(Br)c2)CC1 [Embodiment 50] |
| 0.1 to 1 | 0.1 to 1 | O=C(Nc1ccccc1)Nc1nonc1/C(=N/O)Nc1ccc(F)cc1 [Embodiment 51, (Z)-1-(4-(N-(4-fluorophenyl)-N′-hydroxyaminoiminomethyl)-1,2,5-oxadiazole-3-substituted)-3-phenylurea] |
| 0.1 to 1 | 0.1 to 1 | O=C(Nc1nonc1/C(=N/O)Nc1ccc(F)cc1)NC1CCCCC1 [Embodiment 52, (Z)-1-(4-(N-(4-fluorophenyl)-N′-hydroxyaminoiminomethyl)-1,2,5-oxadiazole-3-substituted)-3-cyclohexylurea] |
| 0.1 to 1 | 0.1 to 1 | CS(=O)(=O)N1CCN(C(=O)Nc2nonc2/C(=N/O)Nc2ccc(F)cc2)CC1 [Embodiment 53] |
| 0.1 to 1 | 0.1 to 1 | COc1ccc(NC(=O)Nc2nonc2/C(=N/O)Nc2ccc(F)cc2)cc1 [Embodiment 54, (Z)-1-(4-(N-(4-fluorophenyl)-N′-hydroxyaminoiminomethyl)-1,2,5-oxadiazole-3-substituted)-3-(4-methoxyphenyl)urea] |
